One test addresses Thrombin (Homo sapiens (Human), UniProt P00734). Briefly: Thrombin inhibition (Ki). The format is biochemical.
Another test addresses MASP-2 (Homo sapiens (Human), UniProt O00187). As to the kind of experiment: MASP-2 inhibition (Ki). The format is biochemical.
The target in another test is human α-thrombin (Homo sapiens (Human), UniProt P00734). As to the kind of experiment: Enzymatic assay for thrombin (Boc-VPR-AMC substrate). It is filed as biochemical.
The next test addresses mMASP-2 (Mus musculus (Mouse), UniProt Q91WP0). Briefly: Enzymatic inhibition of mMASP-2. It is filed as biochemical. Particulars: read-out: mMASP-2 Ki.
Another test has as its target MASP-2 (CCP1-CCP2-SP) (Homo sapiens (Human), UniProt O00187). Briefly: biochemical. The format is biochemical. Particulars: for Ki: read-out: MASP-2 Ki; for MASP-2 vs. thrombin selectivity: selectivity for MASP-2 inhibition versus thrombin.
The next test deals with α-chymotrypsin (Bos taurus (Bovine), UniProt P00766, DEL14-15/DEL147-148). The conditions noted are these: cited from earlier work.
Another test concerns Lectin Pathway. As to the kind of experiment: Lectin pathway activation assay in human serum (mannan-coated ELISA, C3c detection). The format is biochemical. The conditions noted are these: 1% human serum.

Data on 51 molecules can be found in patent US11584714B2 (priority 2018, dated 2023).

Structures can show the parent of a compound that is named as a salt. Where two headings read alike, the source gives them in different places.

Chain of MASP-2 (O00187 16-686): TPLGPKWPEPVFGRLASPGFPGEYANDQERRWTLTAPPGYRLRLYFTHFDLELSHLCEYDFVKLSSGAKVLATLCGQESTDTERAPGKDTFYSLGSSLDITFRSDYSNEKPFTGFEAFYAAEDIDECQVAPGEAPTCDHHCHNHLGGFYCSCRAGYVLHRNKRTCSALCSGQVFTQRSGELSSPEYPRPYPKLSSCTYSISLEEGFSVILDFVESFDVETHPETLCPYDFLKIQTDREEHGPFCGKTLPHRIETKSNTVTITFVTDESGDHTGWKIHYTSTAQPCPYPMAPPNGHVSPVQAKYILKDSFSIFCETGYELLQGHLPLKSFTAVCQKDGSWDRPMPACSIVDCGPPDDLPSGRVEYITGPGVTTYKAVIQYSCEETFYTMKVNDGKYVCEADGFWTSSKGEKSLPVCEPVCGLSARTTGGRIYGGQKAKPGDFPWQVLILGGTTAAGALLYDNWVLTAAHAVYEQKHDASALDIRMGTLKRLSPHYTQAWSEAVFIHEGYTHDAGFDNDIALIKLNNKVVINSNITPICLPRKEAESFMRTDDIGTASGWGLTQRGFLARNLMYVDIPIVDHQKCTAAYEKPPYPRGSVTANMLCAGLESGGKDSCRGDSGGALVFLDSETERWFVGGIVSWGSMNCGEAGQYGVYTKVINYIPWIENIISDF
Chain of MASP-2 (CCP1-CCP2-SP) (O00187 445-686): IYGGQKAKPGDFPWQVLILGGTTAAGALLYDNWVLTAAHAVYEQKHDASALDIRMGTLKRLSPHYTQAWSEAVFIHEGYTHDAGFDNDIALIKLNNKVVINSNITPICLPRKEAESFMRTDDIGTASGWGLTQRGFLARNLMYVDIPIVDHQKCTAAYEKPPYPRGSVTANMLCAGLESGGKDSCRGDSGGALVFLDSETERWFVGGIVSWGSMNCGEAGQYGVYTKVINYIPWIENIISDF
Chain of mMASP-2 (Q91WP0 20-685): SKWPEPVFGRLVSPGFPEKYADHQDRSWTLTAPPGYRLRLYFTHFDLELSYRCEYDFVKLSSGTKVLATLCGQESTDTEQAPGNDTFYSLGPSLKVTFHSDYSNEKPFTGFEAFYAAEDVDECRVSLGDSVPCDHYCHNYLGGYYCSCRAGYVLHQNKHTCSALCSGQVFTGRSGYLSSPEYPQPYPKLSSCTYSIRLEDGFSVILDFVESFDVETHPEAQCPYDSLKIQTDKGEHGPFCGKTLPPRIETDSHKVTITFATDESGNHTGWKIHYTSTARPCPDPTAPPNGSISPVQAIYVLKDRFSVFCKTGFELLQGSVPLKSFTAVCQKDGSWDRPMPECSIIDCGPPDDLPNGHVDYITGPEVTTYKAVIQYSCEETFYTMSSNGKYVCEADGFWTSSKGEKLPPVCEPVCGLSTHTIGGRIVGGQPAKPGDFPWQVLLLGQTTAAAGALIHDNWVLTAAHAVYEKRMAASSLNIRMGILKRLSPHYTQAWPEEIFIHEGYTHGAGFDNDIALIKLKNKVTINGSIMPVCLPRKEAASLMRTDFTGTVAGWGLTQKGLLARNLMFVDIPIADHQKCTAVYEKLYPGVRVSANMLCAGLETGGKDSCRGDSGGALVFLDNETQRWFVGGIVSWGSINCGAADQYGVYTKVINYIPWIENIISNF

Broadly, the Ki is a measure of affinity in units of concentration, obtained from inhibition or displacement. For `O=C1NC(=S)NC(=O)C1=C/C=C/c1ccco1` [compound 29], the Ki is 25 to 100 µM at Thrombin (read-out: Thrombin Ki) and less than 10 µM at MASP-2.
The like results for `N=C(N)c1ccc2ccccc2c1` [compound 53] were, in that order, 10 to 25 µM and less than 10 µM.
`O=C(O)/C=C/C=C/c1ccco1` [compound 38] returned a Ki on MASP-2 of 10 to 25 µM.
For the molecule `CC(=O)c1ccc2c(c1)C1C=CCC1C(C(=O)O)N2` (centres unmarked) [compound 30], the “Thrombin Ki (μM)” value on Thrombin is “No activity”. Moreover, the inhibitory constant (Ki) at MASP-2 lay in the range of 25 to 100 µM.
For `Cc1ccc(/C=C2\N=C(c3ccccc3F)OC2=O)o1` [compound 2], the Ki was 25 to 100 µM on Thrombin (read-out: Thrombin Ki) and less than 10 µM at MASP-2.
As for `C/C=C/C=C/C(=O)Nc1ccccc1C(=O)O` [compound 37], the “Thrombin Ki (μM)” value on Thrombin is “No activity”. Further, on MASP-2, the inhibition constant Ki was 25 to 100 µM.
Turning to `CC(=O)Nc1ccc(OC(=O)c2ccccc2NC(=O)c2ccccc2Br)cc1` [compound 33], the Ki at Thrombin (read-out: Thrombin Ki) and on MASP-2 was less than 10 µM throughout.
For `Nc1nc2ccccc2[nH]1` [compound 46], the “Thrombin Ki (μM)” value at Thrombin is listed as “No activity”. On MASP-2, the Ki lay within 25 to 100 µM.
The like results for `O=C(Oc1ccc([N+](=O)[O-])cc1)c1ccc(Br)o1` [compound 20] were, in that order, “No Activity” and less than 10 µM.
Take `O=c1oc(-c2ccccc2[N+](=O)[O-])nc2ccccc12` [compound 14]: the Ki on Thrombin (read-out: Thrombin Ki) and at MASP-2 was less than 10 µM each time.
In the case of `COC(=O)c1cn(C(=O)c2cc(OC)cc(OC)c2)nc1N` [compound 24], the figures for the inhibition constant Ki at Thrombin (read-out: Thrombin Ki) and at MASP-2 were 10 to 25 µM and less than 10 µM, respectively.
Turning to `O=C(O)c1cc(N2N=C(C(F)(F)F)/C(=C\C=C\c3ccco3)C2=O)ccc1Cl` [compound 16], the “Thrombin Ki (μM)” value on Thrombin is “No activity”. At MASP-2, this molecule came in with a Ki of 25 to 100 µM.
With `COc1ccc(/C=C2\N=C(c3ccccc3OC)OC2=O)cc1OC` [compound 3], the Ki on Thrombin (read-out: Thrombin Ki) is less than 10 µM; at MASP-2, 25 to 100 µM.
Turning to `O=C(c1cccc2ccccc12)n1cccn1` [compound 32], the “Thrombin Ki (μM)” value at Thrombin is reported as “No activity”. Moreover, on MASP-2, the Ki was less than 10 µM.
For `O=C(Oc1cccc([N+](=O)[O-])c1)c1ccco1` [compound 27], the Ki on Thrombin (read-out: Thrombin Ki) is 25 to 100 µM; at MASP-2 it was less than 10 µM.
The like results for `O=C(Nc1nc[nH]n1)c1cccc(I)c1` [compound 36] were, in that order, 25 to 100 µM and less than 10 µM.
The like results for `Cc1cccc2c(=O)oc(-c3ccccc3Cl)nc12` [compound 18] were, in that order, less than 10 µM and less than 10 µM.
For the molecule `N#Cc1ccc(OC(=O)c2ccc(Br)o2)cc1` [compound 45], the Ki at Thrombin (read-out: Thrombin Ki) is 25 to 100 µM; at MASP-2, less than 10 µM.
Take `O=c1[nH]c2ccccc2c(=O)o1` [compound 26]: the results for the inhibition constant (Ki) at Thrombin and at MASP-2 were 25 to 100 µM and less than 10 µM, respectively.
As to `COc1cccc2c1NC(C(=O)O)C1CC=CC21` (centres unmarked) [compound 15], at Thrombin, the “Thrombin Ki (μM)” value was “No activity”. The same molecule registered a Ki on MASP-2 of 25 to 100 µM.
Consider `COc1ccc(S(=O)(=O)n2nc(OC(=O)c3ccco3)cc2N)cc1` [compound 40], for which the Ki on Thrombin (read-out: Thrombin Ki) and on MASP-2 was less than 10 µM throughout.
Regarding `CN(C)C(=S)Nc1ccccc1C(=O)O` [compound 25], the “Thrombin Ki (μM)” value at Thrombin is given as “No activity”. At MASP-2, the Ki is 25 to 100 µM.
As for `COc1ccccc1C1=N/C(=C\c2cc(OC)c(OC)c(OC)c2)C(=O)O1` [compound 4], the Ki on Thrombin (read-out: Thrombin Ki) is 25 to 100 µM; at MASP-2, less than 10 µM.
The like results for `CCc1cc2c(=O)oc(-c3ccccc3C)nc2s1` [compound 43] were, in that order, 25 to 100 µM and less than 10 µM.
The like results for `Cc1ccccc1C1=N/C(=C\c2ccco2)C(=O)O1` [compound 1] were, in that order, less than 10 µM and less than 10 µM.
In the case of `O=c1oc(-c2ccco2)nc2cc(Cl)ccc12` [compound 11], the “Thrombin Ki (μM)” value at Thrombin is given as “No Activity”. The same molecule yielded an inhibition constant (Ki) at MASP-2 of less than 10 µM.
The like results for `CC(=O)c1ccc(OC(=O)c2ccco2)cc1` [compound 41] were, in that order, “No activity” and less than 10 µM.
In the case of `O=Cc1ccc(OC(=O)c2ccco2)cc1` [compound 21], the Ki at Thrombin (read-out: Thrombin Ki) and at MASP-2 was less than 10 µM throughout.
As to `C[C@H](NC(=O)[C@H]1C[C@H](Cc2ccccc2)CN1)C(=O)NCc1cnc2[nH]cc(Cl)c2c1` [compound 1334, (2R,4S)-4-Benzyl-N-((S)-1-(((3-chloro-1H-pyrrolo[2,3-b]pyridin-5-yl)methyl)amino)-1-oxopropan-2-yl)pyrrolidine-2-carboxamide Di-hydrochloride], the “selectivity for MASP-2 over thrombin” value at MASP-2 (MASP-2 vs thrombin) was “MASP-2 selective”. Besides, the Ki on human α-thrombin (read-out: Thrombin Ki), on mMASP-2 and on MASP-2 (CCP1-CCP2-SP) was less than 0.5 µM in each case. Besides, on MASP-2 (CCP1-CCP2-SP), the “MASP-2 vs. thrombin selectivity” value is “−− (<1.0-fold)”.
Take `COc1cc(/C=N/NC(=O)Cc2nnc(N)s2)ccc1OC(=O)c1ccco1` [compound 31]: the “Thrombin Ki (μM)” value on Thrombin is “No activity”. The molecule further yielded an inhibition constant (Ki) on MASP-2 of less than 10 µM.
As to MeO-Suc-Ala-Ala-ProboroPhe-OH, the inhibitory constant (Ki) on α-chymotrypsin was 0.00016 µM.
In the case of `O=C1OC(/C=C/c2ccccc2)=NC/1=C\c1ccco1` [compound 6], the inhibition constant (Ki) on Thrombin (read-out: Thrombin Ki) was 25 to 100 µM; on MASP-2 it was less than 10 µM.
On to `CCOC(=O)c1ccc2c(c1)C1C=CCC1C(C(=O)O)N2` (centres unmarked) [compound 13], for which the “Thrombin Ki (μM)” value on Thrombin is reported as “No activity”. The molecule further yielded an inhibitory constant (Ki) at MASP-2 of 25 to 100 µM.
With `COc1ccccc1C1=N/C(=C\c2cccs2)C(=O)O1` [compound 5], the inhibitory constant (Ki) at MASP-2 fell in the range of 10 to 25 µM.
`Cc1sc2nc(-c3ccccc3F)oc(=O)c2c1C` [compound 42]: the Ki at Thrombin (read-out: Thrombin Ki) was 25 to 100 µM; on MASP-2, less than 10 µM.
The like results for `Cc1c(/N=C/c2ccc(OC(=O)c3ccco3)cc2)c(=O)n(-c2ccccc2)n1C` [compound 34] were, in that order, 25 to 100 µM and less than 10 µM.
`O=C(O)c1ccc2c(c1)C1C=CCC1C(C(=O)O)N2` (centres unmarked) [compound 28]: at Thrombin, the “Thrombin Ki (μM)” value is listed as “No activity”. The same molecule displayed a Ki on MASP-2 of 25 to 100 µM.
Turning to `Nc1cc(OC(=O)c2ccco2)nn1S(=O)(=O)c1ccc(F)cc1` [compound 44], the Ki on Thrombin (read-out: Thrombin Ki) is 25 to 100 µM; on MASP-2, less than 10 µM.
As for `CN(C(=O)c1cc2ccccc2cc1C(=O)C(c1cccc2ccccc12)P(=O)(O)O)C1CCN(C(=O)c2ccccc2)CC1` (centres unmarked) [compound 51], the “Thrombin Ki (μM)” value at Thrombin is recorded as “No activity”. At MASP-2, this molecule gave a Ki of 10 to 25 µM.
As for `O=C1c2ccccc2C(=O)N1Oc1ccc(C(F)(F)F)cc1[N+](=O)[O-]` [compound 35], the Ki on MASP-2 lay in the range of 25 to 100 µM.
As to `Cc1c(C(=O)Nc2ccccc2C(=O)O)cccc1[N+](=O)[O-]` [compound 9], the Ki on Thrombin (read-out: Thrombin Ki) and on MASP-2 was less than 10 µM each time.
On to `Cc1cc(=O)oc2cc(OC(=O)c3ccco3)ccc12` [compound 12], for which the Ki on Thrombin (read-out: Thrombin Ki) and at MASP-2 was less than 10 µM each time.
With `CCCc1nnc(NC(CC)OC(=O)c2cc(C)nc3ccccc23)s1` (centres unmarked) [compound 23], the “Thrombin Ki (μM)” value on Thrombin is “No Activity”. For the same molecule, on MASP-2, the Ki was less than 10 µM.
As to `Cc1ccc(S(=O)(=O)n2nc(OC(=O)c3ccco3)cc2N)cc1` [compound 39], the Ki at Thrombin (read-out: Thrombin Ki) is 10 to 25 µM; at MASP-2, less than 10 µM.
Regarding `N=C(N)c1ccc(N)cc1` [compound 47], the “Thrombin Ki (μM)” value at Thrombin was “No activity”. Also, the inhibition constant Ki at MASP-2 was in the range of 25 to 100 µM.
With `O=c1oc(-c2cccs2)nc2ccccc12` [compound 10], the Ki on Thrombin (read-out: Thrombin Ki) was 25 to 100 µM; at MASP-2, less than 10 µM.
The like results for `O=C(NNC(=O)c1cc2ccccc2cc1O)c1ccco1` [compound 7] were, in that order, less than 10 µM and less than 10 µM.
Regarding `O=C(O)C1Nc2c(O)cc(Cl)c([N+](=O)[O-])c2C2C=CCC12` (centres unmarked) [compound 22], the “Thrombin Ki (μM)” value on Thrombin is “No Activity”. The Ki at MASP-2 was 10 to 25 µM.
Usually IC50 stands for the concentration that gives 50% inhibition. A low value points to higher potency. For the molecule `Cc1nc(N)ccc1CNC(=O)[C@H](C)NC(=O)[C@H]1C[C@H](Cc2ccc(C#N)cc2)CN1` [compound 1428, (2R,4S)—N—((S)-1-(((6-Amino-2-methylpyridin-3-yl)methyl)amino)-1-oxopropan-2-yl)-4-(4-cyanobenzyl)pyrrolidine-2-carboxamide Di-trifluoroacetate salt], the results for the Ki on human α-thrombin (Thrombin Ki (μM)), on mMASP-2 and at MASP-2 (CCP1-CCP2-SP) were 10 to 25 µM, 0.5 to 2.5 µM and less than 0.5 µM, respectively. Also, the IC50 in the test on Lectin Pathway was 0.5 to 5 µM. Further, the “MASP-2 vs. thrombin selectivity” value on MASP-2 (CCP1-CCP2-SP) was “**** (≥100-fold)”.
On to `O=c1oc(-c2ccco2)nc2scc(-c3cccs3)c12` [compound 19], for which the inhibition constant Ki on Thrombin (read-out: Thrombin Ki) is 25 to 100 µM; on MASP-2, less than 10 µM.
The like results for `Cc1c(/N=C/c2ccc(OC(=O)c3ccccn3)cc2)c(=O)n(-c2ccccc2)n1C` [compound 17] were, in that order, 25 to 100 µM and less than 10 µM.
